Tested on: common mosquito (Culex pipiens pallens)
Test: Test Example 2: knock down test, forced contact with treated glass petri dish
Format: in vivo
Conditions: 5 minutes after release, ten female adults, 3 min contact
Experimental: Acetone-diluted solutions were prepared so that predetermined dosage of the Guanidine Compound and the ester compound B on glass plates indicated in Table 1 would be applied. The acetone-diluted solutions (0.5 ml) were treated on the underside of glass petri dishes with a diameter of 7 cm uniformly and air-dried. Ten female adults of common mosquito (Culex pipiens pallens) were collected by means of a pocket aspirator and placed into the petri dish, then contacted compulsorily with the treated underside of glass petri dishes by covering with a lucid plate made of polyvinyl chloride.
Three minutes after covering, said common mosquitoes were released in nyron cage (size: 16.5 cm×15.5 cm×22 cm). At a given period of time after releasing, the number of knocked down insects was counted and a knock down rate was calculated.

| Structure (SMILES) | Knock down rate (%) after 5 minutes (ester compound B alone 0.000125 mg/plate) [%] | Knock down rate (%) after 5 minutes (ester compound B alone 0.00025 mg/plate) [%] | Knock down rate (%) after 5 minutes (Guanidine Compound alone 0.000125 mg/plate) [%] | Knock down rate (%) after 5 minutes (Guanidine Compound alone 0.00025 mg/plate) [%] | Knock down rate (%) after 5 minutes (Guanidine Compound alone 0.0005 mg/plate) [%] | Knock down rate (%) after 5 minutes (Guanidine Compound alone 0.00125 mg/plate) [%] |
| --- | --- | --- | --- | --- | --- | --- |
| C/C=C\[C@@H]1[C@@H](C(=O)OCc2c(F)c(F)c(COC)c(F)c2F)C1(C)C (relative stereo) [reference 4, 2,3,5,6-tetrafluoro-4-methoxymethylbenzyl=(1R)-trans-3-(1-propenyl(Z))-2,2-dimethylcyclopropanecarboxylate] | 10 | 20 |  |  |  |  |
| CN/C(=N\[N+](=O)[O-])NCc1cnc(Cl)s1 [reference 1, (E)-1-(2-chloro-1,3-thiazol-5-ylmethyl)-3-methyl-2-nitroguanidine] |  |  | 10 | 10 | 10 | 20 |

— patent publication US20130345266A1, “PEST CONTROL COMPOSITION AND PEST CONTROL METHOD” (SUMITOMO CHEMICAL COMPANY, LIMITED, priority 2011, published 2013)
